# Reference: PMC11820736, “Design, Synthesis, and Anti-Tyrosinase, Anti-Melanogenic, and Antioxidant Activities of Novel (Z)-3-Benzyl-5-Benzylidene-2-Thioxothiazolidin-4-One Analogs” (Molecules, 2025)
# Entries after “also recorded” stand apart in the source; their conditions may differ.
# Assays:
# [1] = tested on: B16F10 cells; assay: Cytotoxicity assay on B16F10 murine melanoma cells (EZ-Cytox); format: cell-based; conditions: 1, 2, 5 and 10 μM, 72 h
# Procedure: Cell viability for analogs 1–3 was examined on B16F10 cells at 1, 2, 5, and 10 μM concentrations for 72 h.
# The influence of (Z)-BBTT analogs 1–3 on B16F10 cell viability was studied using an EZ-Cytox solution (EZ-1000®, DoGenBio, Seoul, Republic of Korea). B16F10 cells were seeded at a density of 1 × 10^3 in each well of a 96-well plate, and the plate was cultivated under normal cell culture conditions for 24 h. Analogs were added to each well at concentrations of 0, 1, 2, 5, and 10 μM, and then cells were cultivated for 72 h under normal cell culture conditions. An aliquot (10 μL) of the EZ-Cytox solution was added to each well and cultivated for 2 h. Well absorbance was recorded at 450 nm using a VE microplate reader to calculate cell viability.
# [2] = ABTS cation radical scavenging activity; conditions: 100 μM, 2 min in the dark
# Procedure: To measure the scavenging effects of analogs 1–12 on ABTS^+ radicals, ABTS was initially treated with potassium persulfate to yield ABTS^•+. The formed ABTS^+ radical solution was mixed with test samples (analogs 1–12 and Trolox [positive reference standard]; final concentration: 100 μM), and absorbance was measured at 732 nm after storing for 2 min in the dark to determine %ABTS^•+-scavenging ability.
# ABTS^•+ was prepared by mixing equal amounts of ABTS (14 mM in H2O) and K2S2O8 (4.9 mM in H2O) and storing in the dark at 20 °C for 16 h. Prior to use, the absorbance of the prepared ABTS^•+ solution was adjusted to 0.7 ± 0.02 at 732 nm by dilution with methanol. A cosolvent (EtOH:DMSO = 10:1 [v/v]) was used to prepare solutions of the test samples (analogs 1–12 and Trolox [positive reference standard]). All test samples were used at a final concentration of 100 μM. The test sample solution (10 μL) was mixed with the adjusted ABTS^•+ solution (90 μL) in each well of a 96-well plate, and the mixture was kept in the dark at 20 °C for 2 min. The absorbance was recorded at 732 nm at 1 min intervals for 10 min using a VE microplate reader. The percentage of radical-scavenging activity was calculated using the formula % radical-scavenging activity = [(Abscontrol − Abssample)/Abscontrol] × 100, where Abssample and Abscontrol are absorbances of the sample and control, respectively.
compound,measurement,setting,value
"O=C1/C(=C/c2ccc(O)cc2O)SC(=S)N1Cc1ccccc1 [Compound 3, (Z)-3-Benzyl-5-(2,4-dihydroxybenzylidene)-2-thioxothiazolidin-4-one]",cytotoxicity to B16F10 cells,[1],not cytotoxic; also recorded: no perceptible cytotoxicity
same,% ABTS^•+ scavenging,[2],98%
